# Test results reported in patent US8951985B2, “Compounds and pharmaceutical compositions for the treatment of viral infections” (Idenix Pharmaceuticals, Inc., priority 2011, dated 2015).
# Like-named read-outs stand apart in the source and are kept apart here.
# Experiments:
# [1] = Cytotoxicity evaluation, CellTiter-Blue Cell Viability Assay; format: cell-based; conditions: human, Zluc cells (Huh-7-derived HCV replicon cell line)
# Experimental: (§1) For cytotoxicity evaluation, Zluc cells were treated with compound as described above, and cell viability was monitored using the CellTiter-Blue Cell Viability Assay (Promega) by adding 20 μL of the assay solution to each well. The plates were then incubated at 37° C./5% CO2 for at least 3 hours. Fluorescence was detected in plates using excitation and emission wavelengths of 560 and 590 nm, respectively, in a Victor^3 V 1420 multilabel counter (Perkin Elmer) and CC50 values were determined using Microsoft Excel and XLfit 4.1 software.
# HCV genotype 1b replicon = assay: HCV replicon assay (HCV-REPL LUC), luciferase reporter; format: cell-based, hepatitis C virus
# Experimental: Huh-7-derived cell line (Zluc) that harbors an HCV genotype 1b replicon and a luciferase reporter gene was grown in Dulbecco's Modified Eagle Medium (DMEM) supplemented with 10% fetal bovine serum, 2 mM GlutaMAX, 1% MEM nonessential amino acids, 100 IU/mL penicillin, 100 μg/mL streptomycin, and 0.5 mg/mL Geneticin® (G418). For dose response testing the cells were seeded in 96-well plates at 7.5×10^3 cells per well in a volume of 50 μl, and incubated at 37° C./5% CO2. Drug solutions were made up freshly in Huh-7 media as 2× stocks. Ten additional 5-fold dilutions were prepared from these stocks in DMEM without G418. At least three hours after Zluc cells were seeded, drug treatment was initiated by adding 50 μL of drug dilutions to the plates in duplicate. […] Cells were then incubated at 37° C./5% CO2. Alternatively compounds were tested at two concentrations (10 nM and 100 nM). […] After 72 hours of incubation, the inhibition of HCV replication was measured by quantification of photons emitted after mono-oxygenation of 5′-fluoroluciferin to oxyfluoroluciferin by firefly luciferase. For this, media was removed from the plates via gentle tapping. Fifty microliters of ONE-glo luciferase assay reagent was added to each well. The plates were shaken gently for 3 min at room temperature and luminescence was measured on a Victor^3 V 1420 multilabel counter (Perkin Elmer) with a 1 second read time using a 700 nm cut-off filter. The EC50 values were calculated from dose response curves from the resulting best-fit equations determined by Microsoft Excel and XLfit 4.1 software.
# Compounds presented in the table below were assayed according to the replicon assay described above.
# [2] = test system: Zluc cells (Huh-7-derived cell line); assay: Cytotoxicity evaluation, CellTiter-Blue Cell Viability Assay; format: cell-based; conditions: read-out: HCV Replicon CC50
# Experimental: as §1
# [3] = Hepatitis C virus, Huh-7, 72 h, read-out: HCV Replicon EC50, Zluc cells (Huh-7, HCV genotype 1b replicon, luciferase), 72 hours incubation
smiles,measurement,setting,value
COc1nc(N)nc2c1ncn2[C@@H]1O[C@H](COP(=O)(N[C@@H](CC(C)C)C(=O)OC(C)C)OCCCC(=O)NCc2ccc(F)cc2)[C@@H](O)[C@@]1(C)O (stereo partly shown) [Compound 5],CC50,[1],≥ 100 µM
same,EC50,HCV genotype 1b replicon; [3],5 to 10 µM
COc1nc(N)nc2c1ncn2[C@@H]1O[C@H](COP(=O)(N[C@@H](C)C(=O)OC(C)C)OCC(=O)OC(C)C)[C@@H](O)[C@@]1(C)O (stereo partly shown) [Compound 1],CC50,[1],≥ 100 µM
same,EC50,HCV genotype 1b replicon; [3],1 to 5 µM
CCOC(=O)COP(=O)(N[C@H](C(=O)OC)C(C)C)OC[C@H]1O[C@@H](n2cnc3c(OCC)nc(N)nc32)[C@](C)(O)[C@@H]1O (mixture of isomers) [Compound 7],CC50,[1],≥ 100 µM
same,EC50,HCV genotype 1b replicon; [3],1 to 5 µM
"CCOC(=O)COP(=O)(N[C@@H](CC(C)C)C(=O)OC(C)C)OC[C@H]1O[C@@H](n2cnc3c(OC)nc(N)nc32)[C@](C)(O)[C@@H]1O (single isomer, unassigned) [Compound 11a]",CC50,[1],≥ 100 µM
same,EC50,HCV genotype 1b replicon; [3],1 to 5 µM
COc1nc(N)nc2c1ncn2[C@@H]1O[C@H](COP(=O)(N[C@@H](CC(C)C)C(=O)OC(C)C)OCC(=O)NCc2ccc(F)cc2)[C@@H](O)[C@@]1(C)O (mixture of isomers) [Compound 10],CC50,[1],≥ 100 µM
same,EC50,HCV genotype 1b replicon; [3],1 to 5 µM
CCOC(=O)COP(=O)(NC(C(=O)OCC)c1ccccc1)OC[C@H]1O[C@@H](n2cnc3c(OC)nc(N)nc32)[C@](C)(O)[C@@H]1O (stereo partly shown) [Compound 8],CC50,[1],≥ 100 µM
same,EC50,HCV genotype 1b replicon; [3],5 to 10 µM
CCOC(=O)COP(=O)(N[C@@H](CC(C)C)C(=O)OC(C)C)OC[C@H]1O[C@@H](n2cnc3c(OC)nc(N)nc32)[C@](C)(F)[C@@H]1O (mixture of isomers) [Compound 12],CC50,[1],≥ 100 µM
same,EC50,HCV genotype 1b replicon; [3],0.5 to 1 µM
CCOC(=O)[C@H](Cc1ccccc1)NP(=O)(OCC(=O)OC(C)C)OC[C@H]1O[C@@H](n2cnc3c(OC)nc(N)nc32)[C@](C)(O)[C@@H]1O (mixture of isomers) [Compound 2],CC50,[1],≥ 100 µM
same,EC50,HCV genotype 1b replicon; [3],0.5 to 1 µM
CCOC(=O)COP(=O)(N[C@H](Cc1ccccc1)C(=O)OC(C)C)OC[C@H]1O[C@@H](n2cnc3c(OC)nc(N)nc32)[C@](C)(O)[C@@H]1O (stereo partly shown) [Compound 3],CC50,[1],≥ 100 µM
same,EC50,HCV genotype 1b replicon; [3],5 to 10 µM
CCOC(=O)[C@@H](NP(=O)(OCCC(=O)OC(C)(C)C)OC[C@H]1O[C@@H](n2cnc3c(OC)nc(N)nc32)[C@](C)(O)[C@@H]1O)C(C)C (mixture of isomers) [Compound 6],CC50,[1],≥ 100 µM
same,EC50,HCV genotype 1b replicon; [3],1 to 5 µM
"CCOC(=O)COP(=O)(N[C@@H](CC(C)C)C(=O)OC(C)C)OC[C@H]1O[C@@H](n2cnc3c(OC)nc(N)nc32)[C@](C)(O)[C@@H]1O (single isomer, unassigned) [Compound 11b]",CC50,[2],50 to 99 µM
same,EC50,"HCV genotype 1b replicon; read-out: HCV Replicon EC50, Zluc cells (Huh-7, HCV genotype 1b replicon, luciferase), 72 hours incubation",< 0.5 µM
CCOC(=O)COP(=O)(N[C@@H](CC(C)C)C(=O)OC(C)C)OC[C@H]1O[C@@H](n2cnc3c(OC)nc(N)nc32)[C@](C)(O)[C@@H]1O (stereo partly shown) [Compound 11],CC50,[1],≥ 100 µM
same,EC50,HCV genotype 1b replicon; [3],< 0.5 µM
COc1nc(N)nc2c1ncn2[C@@H]1O[C@H](COP(=O)(N[C@@H](CC(C)C)C(=O)OC(C)C)OC(C)C(=O)OCc2ccccc2)[C@@H](O)[C@@]1(C)O (stereo partly shown) [Compound 4],CC50,[1],50 to 99 µM
same,EC50,HCV genotype 1b replicon; [3],0.5 to 1 µM
CCOC(=O)COP(=O)(N[C@@H](CCSC)C(=O)OCC)OC[C@H]1O[C@@H](n2cnc3c(OC)nc(N)nc32)[C@](C)(O)[C@@H]1O (mixture of isomers) [Compound 9],CC50,[1],≥ 100 µM
same,EC50,HCV genotype 1b replicon; [3],1 to 5 µM
